Measured values reported in patent US8008354B2, “Death receptor sensitizing compounds and methods of use therefor” (Burnham Institute for Medical Research, priority 2006, dated 2011).
Like-named read-outs stand apart in the source and are kept apart here.

Tested on: PPC-1 cells
Assay: MTT cell viability of PPC-1 cells treated with compound with or without CH-11 anti-FAS antibody
Format: cell-based
Details: for IC50: Homo sapiens, PPC-1, 24 h, read-out: LD50 (μM) PPCl; for LD50 (μM) (PPCl, CH-11): PPC-1 cells with CH-11 100 ng/mL, MTT 24 hours, LD50 = concentration that reduces cell viability by 50%
Protocol: FIGS. 2A-C. […] PPC-1 cells (1×10^4) were seeded in 96 well plates. The next day, cells were treated with increasing concentrations of the sensitizing compounds with (open squares) and without (closed squares) CH-11 antibody (100 ng/mL). Cell viability was measured 24 hours later by MTT assay. Cell viability is expressed as a mean percentage of untreated cells+SD (n=3). The Chembridge identification numbers of the compounds are provided.
High throughput screening. […] PPC-1 cells (1×10^4) were seeded overnight into 96 well, flat-bottom plates (Costar, Cambridge, Mass.) in 100 μL of medium containing 2.5% FCS. […] CH-11 antibody (100 ng/mL) was then added, and the cells were incubated for 24 hours before assessing cell viability by a 3-(4,5-Dimethylthiazol-2-yl)-2,5-diphenyltetrazolium Bromide (MTT) dye reduction assay (Sigma).
Cell death assays. […] Absorbance readings were plotted against a standard curve to derive the corresponding cell number, and cell viability was expressed as a percentage relative to untreated cells.

[1] = PPC-1 cells, compound alone without CH-11, MTT 24 hours

Row | SMILES | IC50 [1] [µM] | LD50 (μM) (PPCl, CH-11) | IC50 [µM]
1 | C/C(CC(=O)Nc1ccc(Cl)c(C(F)(F)F)c1)=N\NC(=O)c1cnccn1 [N-(4-Chloro-3-trifluoromethyl-phenyl)-3-[(pyrazine-2-carbonyl)-hydrazono]-butyramide] | 67 ± 3 | 11 ± 3 µM | 
2 | CC(=O)CC(=O)Nc1cc(C(F)(F)F)ccc1Cl [N-[2-chloro-5-(trifluoromethyl)phenyl]-3-oxobutanamide] | 75 ± 1 | 65 ± 5 µM | 
3 | O=C(CCc1ccccc1)Nc1cc(C(F)(F)F)ccc1Cl [N-[2-chloro-5-(trifluoromethyl)phenyl]-3-phenylpropanamide] | > 100 | >100 µM | 
4 | O=C(CCc1ccccc1)Nc1ccc(Cl)cc1C(F)(F)F [N-[4-chloro-2-(trifluoromethyl)phenyl]-3-phenylpropanamide] | > 100 | >100 µM | 
5 | O=C(CCc1ccccc1)Nc1ccc(Cl)c(C(F)(F)F)c1 [N-[4-chloro-3-(trifluoromethyl)-phenyl]-3-phenyl-proionamide] | 85 ± 3 | 11 ± 1 µM | 
6 | O=C(Nc1ccc(Cl)c(C(F)(F)F)c1)c1cccs1 [N-[4-chloro-3-(trifluoromethyl)phenyl]-2-thiophenecarboxamide] | 96 ± 1 | 35 ± 11 µM | 
7 | CC(C)(C)c1cc(C(=O)Cn2c(=N)n(CCN3CCCCC3)c3ccccc32)cc(C(C)(C)C)c1O.Cl [compound 5529457, 1-(3,5-di-tert-butyl-4-hydroxyphenyl)-2-(2-imino-3-(2-(piperidin-1-yl)ethyl)-2,3-dihydro-1H-benzo[d]imidazol-1-yl)ethanone hydrochloride] | 7.5 | 3.7 µM | 
8 | Br.Cc1ccc(Cn2c(=N)n(CC(=O)c3cc(C(C)(C)C)c(O)c(C(C)(C)C)c3)c3ccccc32)cc1 [compound 5651311, 1-(3,5-di-tert-butyl-4-hydroxyphenyl)-2-(2-imino-3-(4-methylbenzyl)-2,3-dihydro-1H-benzo[d]imidazol-1-yl)ethanone hydrobromide] | 19 | 9 µM | 
9 | Br.CC(C)(C)c1cc(C(=O)Cn2c(=N)n(Cc3ccccc3)c3ccccc32)cc(C(C)(C)C)c1O [compound 5657593, 2-(3-benzyl-2-imino-2,3-dihydro-1H-benzo[d]imidazol-1-yl)-1-(3,5-di-tert-butyl-4-hydroxyphenyl)ethanone hydrobromide] | 9.1 | 3.4 µM | 
10 | O=C(Cc1ccc(Cl)cc1)N1CCN(C/C=C/c2ccccc2)CC1 [compound 5703229, 1-[(4-chlorophenyl)acetyl]-4-[(2e)3-phenylprop-2-enyl]piperazine] |  | 34+4 μM | 50
